Laboratory results taken from patent US20210024542A1 (Torcept Therapeutics, Inc., priority 2018, published 2021).

Columns and labels:
U-138MG = experiment: OncoPanel cell proliferation assay, U-138MG; type: cell-based, human; conditions: U-138MG
Procedure: (§1) Cells were grown in RPMI 1640, 10% FBS, 2 mM L-alanyl-L-glutamine, 1 mM Na pyruvate, or a special medium. Cells were seeded into 384-well plates and incubated in a humidified atmosphere of 5% CO2 at 37° C. Compounds were added the day following cell seeding. At the same time, a time zero untreated cell plate was generated. After a 3-day incubation period, cells were fixed and stained to allow fluorescence imaging of nuclei. Compounds (1 mM stock solutions) were serially diluted in half-log steps from the highest test concentration ([…]), and assayed over 10 concentrations with a maximum assay concentration of 0.1% DMSO. Automated fluorescence microscopy was carried out using a Molecular Devices ImageXpress Micro XL high-content imager, and images were collected with a 4× objective. 16-bit TIFF images were acquired and analyzed with MetaXpress 5.1.0.41 software.
(§2) Cell proliferation was measured by the fluorescence intensity of an incorporated nuclear dye. The output is referred to as the relative cell count, where the measured nuclear intensity is transformed to percent of control (POC) using the following formula: […]
(§3) Cellular response parameters were calculated using nonlinear regression to a sigmoidal single-site dose response model:
(§4) Where y is a response measured at concentration x, A and B are the lower and upper limits of the response, C is the concentration at the response midpoint (EC50), and D is the Hill Slope (Ref. 1).
(§5) EC50 is the test compound concentration at the curve inflection point or half the effective response (parameter C of the fitted curve solution). GI50 is the concentration needed to reduce the observed growth by half (midway between the curve maximum and the time zero value). “Cell Count Activity Area” is an estimate of the integrated area above the curve (Barretina, et al. The Cancer Cell Line Encyclopedia enables predictive modelling of anticancer drug sensitivity. Nature 483: 603-607). […] In rare instances, values <0 or >10 may be observed. […] Curve-fitting, calculations, and report generation was performed using a custom data reduction engine and MathIQ based software (AIM).

SW684 = experiment: OncoPanel cell proliferation assay, SW684; type: cell-based, human
Procedure: as §1, with “Cells” for “Cells were grown in RPMI 1640, 10% FBS, 2 mM L-alanyl-L-glutamine, 1 mM Na pyruvate, or a special medium. Cells”
as §2, §3, §4
(§6) GI50 is the concentration needed to reduce the observed growth by half (midway between the curve maximum and the time zero value). […] In rare instances, values <0 or >10 may be observed. […] Curve-fitting, calculations, and report generation was performed using a custom data reduction engine and MathIQ based software (AIM).

SNU-5 = experiment: OncoPanel cell proliferation assay, SNU-5; type: cell-based, human; conditions: Homo sapiens, 72 h, SNU-5, 3-day incubation
Procedure: as §1, with “Cells” for “Cells were grown in RPMI 1640, 10% FBS, 2 mM L-alanyl-L-glutamine, 1 mM Na pyruvate, or a special medium. Cells”
as §2, §3, §4, §6

PC-3 = experiment: OncoPanel cell proliferation assay, PC-3
Procedure: Cells were seeded into 384-well plates and incubated in a humidified atmosphere of 5% CO2 at 37° C. Compounds were added the day following cell seeding. At the same time, a time zero untreated cell plate was generated. After a 3-day incubation period, cells were fixed and stained to allow fluorescence imaging of nuclei. Compounds (1 mM stock solutions) were serially diluted in half-log steps from the highest test concentration (1 micromol), and assayed over 10 concentrations with a maximum assay concentration of 0.1% DMSO. Automated fluorescence microscopy was carried out using a Molecular Devices ImageXpress Micro XL high-content imager, and images were collected with a 4× objective. 16-bit TIFF images were acquired and analyzed with MetaXpress 5.1.0.41 software.

SW579 = experiment: OncoPanel cell proliferation assay, SW579; type: cell-based, human
Procedure: as §1, §2, §3, §4, §5

CEM-C1 = experiment: OncoPanel cell proliferation assay, CEM-C1; type: cell-based, human
Procedure: as §1, §2, §3, §4, §5

DMS114 = experiment: OncoPanel cell proliferation assay, DMS114; type: cell-based, human
Procedure: as §1, with “Cells” for “Cells were grown in RPMI 1640, 10% FBS, 2 mM L-alanyl-L-glutamine, 1 mM Na pyruvate, or a special medium. Cells”
as §2, §3, §4, §6

A388 = experiment: OncoPanel cell proliferation assay, A388; type: cell-based, human; conditions: Homo sapiens, 72 h, A388, 3-day incubation
Procedure: as §1, with “Cells” for “Cells were grown in RPMI 1640, 10% FBS, 2 mM L-alanyl-L-glutamine, 1 mM Na pyruvate, or a special medium. Cells”
as §2, §3, §4, §6

AGS = experiment: OncoPanel cell proliferation assay, AGS; type: cell-based, human; conditions: scale 0-10
Procedure: as §1, §2, §3, §4, §5

SCaBER = experiment: OncoPanel cell proliferation assay, SCaBER; type: cell-based, human; conditions: scale 0-10
Procedure: as §1, §2, §3, §4, §5

SNU-C2B = experiment: OncoPanel cell proliferation assay, SNU-C2B; type: cell-based, human
Procedure: as §1, §2, §3, §4, §5

SK-N-AS = experiment: OncoPanel cell proliferation assay, SK-N-AS; type: cell-based, human
Procedure: as §1, §2, §3, §4, §5

[1] = Homo sapiens, 72 h, 3-day incubation, read-out: Cell Count IC50

`CO[C@H]1C[C@@H]2CC[C@@H](C)[C@@](O)(O2)C(=O)C(=O)N2CCCC[C@H]2C(=O)O[C@H]([C@H](C)C[C@@H]2CC[C@@H](O)[C@H](OC)C2)CC(=O)[C@H](C)/C=C(\C)[C@@H](O)[C@@H](OC)C(=O)[C@H](C)C[C@H](C)/C=C/C=C/C=C/1C` [Rapamycin, reference compound] was tested, and the IC50 (U-138MG; Homo sapiens, U138-MG, 72 h, 3-day incubation, read-out: Cell Count IC50) was over 1000 nM, the “Cell Count Activity Area” value (U-138MG; scale 0-10) was 3.14 and the IC50 (SW684; Homo sapiens, 72 h, SW684, 3-day incubation, read-out: Cell Count IC50) was over 1000 nM. The “Cell Count Activity Area” value (SW684; SW684, scale 0-10) was 2.81, the GI50 (SNU-5; read-out: Cell Count GI50) was 24 nM and the IC50 (SNU-5; read-out: Cell Count IC50) was over 1000 nM. For the same molecule, the EC50 (PC-3; Homo sapiens, PC-3, 72 h, read-out: Cell Count EC50) was 0.23 nM, the IC50 (PC-3; Homo sapiens, PC-3, 72 h, read-out: Cell Count IC50) was over 1000 nM and the “Cell Count Activity Area” value (PC-3; PC-3, scale 0-10) was 3.57. The IC50 (SW579; Homo sapiens, 72 h, SW579, 3-day incubation, read-out: Cell Count IC50) was over 1000 nM, the “Cell Count Activity Area” value (SW579; SW579, scale 0-10) was 4.77 and the “Cell Count Activity Area” value (CEM-C1; CEM-C1, scale 0-10) was 3.61. The IC50 (CEM-C1; Homo sapiens, 72 h, CEM-C1, 3-day incubation, read-out: Cell Count IC50) was over 1000 nM, the “Cell Count Activity Area” value (DMS114; DMS114, scale 0-10) was 4.14 and the IC50 (DMS114; Homo sapiens, DMS-114, 72 h, DMS114, 3-day incubation, read-out: Cell Count IC50) was over 1000 nM. For the same molecule, the EC50 (A388; read-out: Cell Count EC50) was over 1000 nM, the GI50 (A388; read-out: Cell Count GI50) was over 1000 nM and the IC50 (A388; read-out: Cell Count IC50) was over 1000 nM. The “Cell Count Activity Area” value (AGS) was 5.67, the “Cell Count Activity Area” value (SCaBER) was 5.25 and the EC50 (SNU-C2B; Homo sapiens, 72 h, 3-day incubation, read-out: Cell Count EC50) was over 1000 nM. The GI50 (SNU-C2B; Homo sapiens, 72 h, 3-day incubation, read-out: Cell Count GI50) was over 1000 nM, the IC50 (SNU-C2B; [1]) was over 1000 nM and the “Cell Count Activity Area” value (SNU-C2B; scale 0-10) was 1.99. For the same molecule, the IC50 (SK-N-AS; [1]) was over 1000 nM and the “Cell Count Activity Area” value (SK-N-AS; scale 0-10) was 3.58.
